Data from patent US10611847B2, “ABCG2 monoclonal antibody and uses thereof” (PEKING UNIVERSITY, priority 2016, dated 2020).

How the values were obtained:
Assay type in all cases: cell-based
[1] = tested on: A549/cis (Over-expressing ABCG2); assay: Drug sensitization test (MTT); conditions: 72 hours
Description: (§1) MCF7 Flavo-resistant strain and A549 cisplatin-resistant strain (A549/cis) were used as the experimental cell line with high ABCG2 expression, and the corresponding non-resistant cells MCF7 and A549 with relatively low ABCG2 expression were used as control cell lines in the drug sensitization test. FTC is a specific inhibitor of ABCG2, so the cell group added with FTC was used as a positive control group; the cell group added with a corresponding volume of DMEM high glucose medium or RPMI-1640 medium was used as a negative control group. […] The ABCG2-PKU1, ABCG2-PKU1-1 and ABCG2-PKU2 antibodies prepared in Example 3, as well as mitoxantrone (MTX) and FTC were added. After 72 hours, MTT test was carried out and the absorbance was measured. […] The ratio of the IC50 of the drug-resistant cells to the IC50 of the original cells was calculated, which was the relative drug resistance. Breast cancer cell MCF7 and Flavopiridol (Flavo)-resistant strain MCF7/Flavo cells, lung cancer A549 cells and cisplatin (Cis)-resistant strain A549/Cis cells were divided into 11 groups in the growth inhibition analysis: […]

A549 = assay: Drug sensitization test (MTT); conditions: 72 hours
Description: as §1

[2] = tested on: MCF 7/Flavo (Over-expressing ABCG2); assay: Drug sensitization test (MTT); conditions: 72 hours
Description: as §1

MCF 7 = assay: Drug sensitization test (MTT); conditions: 72 hours
Description: as §1

[3] = tested on: MCF7, MCF7/ADM, MCF7/FLV1000, MCF7/Mitoxantrone, A549, A549/cis, L02 and L02/Oct4 cells; assay: Tumor cell growth inhibition analysis; conditions: agent alone; d1-d6 (FIG. 8)
Protocol: (1) Tumor cell MCF7 and the drug-resistant strains MCF7/ADM, MCF7/FLV1000, MCF7/Mitoxantrone obtained and identified in Example 4, A549 and A549/cis, L02 and L02/Oct4 cells were seeded in a 96-well plate, 3000 cells/90 μl/well, 6 replicate wells, incubated at 37° C. overnight.
(2) According to the following Tables 6-1 and 6-2, mitoxantrone, commercial ABCG2 antibody (BXP-21) and the three ABCG2 antibodies ABCG2-PKU1, ABCG2-PKU1-1 and ABCG2-PKU2 obtained in Example 3 were added to the plate. The plate was then incubated in a, 5% CO2 incubator at 37° C. 10 μl of DMSO was added to the well at d1, d2, d3, d4, d5, and d6, and the absorbance was measured using an ELISA instrument after 2 hours.
(3) Inhibitory rate calculation: OD value of drug-treatment—blank OD value/OD value without drug-treatment—blank OD value, a growth inhibition curve was plotted.

Row | SMILES | Relative Drug Resistance ([1]; mitoxantrone + agent at 5 μM) | Relative Drug Resistance (A549; mitoxantrone + agent at 5 μM) | Relative Drug Resistance ([2]; mitoxantrone + agent at 5 μM) | Relative Drug Resistance (MCF 7; mitoxantrone + agent at 5 μM) | inhibition of tumor cell growth [3] | Relative Drug Resistance ([1]; mitoxantrone alone) | Relative Drug Resistance (A549; mitoxantrone alone) | Relative Drug Resistance ([2]; mitoxantrone alone) | Relative Drug Resistance (MCF 7; mitoxantrone alone)
1 | COc1ccc2c3c([nH]c2c1)[C@H](C=C(C)C)N1C(=O)[C@@H]2CCCN2C(=O)[C@@H]1C3 [FTC] | 0.92 | 1.13 | 0.77 | 1.03 | – | – | – | – | –
2 | O=C1c2c(O)ccc(O)c2C(=O)c2c(NCCNCCO)ccc(NCCNCCO)c21 [Mitoxantrone, mitoxantrone] | – | – | – | – | could inhibit the growth | 1.00 | 1.00 | 1.00 | 1.00
